Source: ChEMBL document CHEMBL1201862, “PubChem BioAssay data set” (2004)
Calls of active or inactive are those of the source. Rule as the data show it, for most assays here: actives have a measured EC50 and inactives only a lower limit.

Tests used:
[1] = target: T1, Replicative DNA helicase DnaB (Mycobacterium tuberculosis, UniProt P9WMR3); assay: DnaB intein splicing inhibitors, dose response, biochemical, cell-free fluorescence (AID 449749); type: functional
T1 sequence (P9WMR3 whole entry): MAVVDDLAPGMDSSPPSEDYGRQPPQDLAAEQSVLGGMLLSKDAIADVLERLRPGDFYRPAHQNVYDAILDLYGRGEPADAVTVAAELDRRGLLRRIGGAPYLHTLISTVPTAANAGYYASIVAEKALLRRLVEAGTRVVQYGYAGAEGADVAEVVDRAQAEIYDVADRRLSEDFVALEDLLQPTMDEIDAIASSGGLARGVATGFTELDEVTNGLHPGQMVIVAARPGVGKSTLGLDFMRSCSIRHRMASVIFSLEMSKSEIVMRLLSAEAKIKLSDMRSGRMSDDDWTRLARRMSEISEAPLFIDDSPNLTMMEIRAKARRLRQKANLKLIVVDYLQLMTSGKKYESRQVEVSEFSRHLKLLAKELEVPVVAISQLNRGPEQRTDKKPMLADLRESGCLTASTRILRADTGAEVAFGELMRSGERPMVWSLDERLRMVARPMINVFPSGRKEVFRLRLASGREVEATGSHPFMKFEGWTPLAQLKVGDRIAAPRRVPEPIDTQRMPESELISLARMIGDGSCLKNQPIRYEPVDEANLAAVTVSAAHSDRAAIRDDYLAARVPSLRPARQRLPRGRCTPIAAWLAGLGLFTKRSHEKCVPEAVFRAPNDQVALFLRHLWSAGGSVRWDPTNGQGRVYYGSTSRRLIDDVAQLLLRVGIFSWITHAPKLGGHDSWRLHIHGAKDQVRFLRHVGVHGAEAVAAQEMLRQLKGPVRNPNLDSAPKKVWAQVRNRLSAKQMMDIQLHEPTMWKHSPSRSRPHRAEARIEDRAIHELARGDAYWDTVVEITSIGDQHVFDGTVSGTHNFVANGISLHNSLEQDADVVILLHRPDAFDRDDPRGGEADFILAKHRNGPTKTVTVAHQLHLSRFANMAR

[2] = target: T2, Apoptotic protease-activating factor 1 (Homo sapiens, UniProt O14727); type: functional
T2 sequence (O14727 whole entry): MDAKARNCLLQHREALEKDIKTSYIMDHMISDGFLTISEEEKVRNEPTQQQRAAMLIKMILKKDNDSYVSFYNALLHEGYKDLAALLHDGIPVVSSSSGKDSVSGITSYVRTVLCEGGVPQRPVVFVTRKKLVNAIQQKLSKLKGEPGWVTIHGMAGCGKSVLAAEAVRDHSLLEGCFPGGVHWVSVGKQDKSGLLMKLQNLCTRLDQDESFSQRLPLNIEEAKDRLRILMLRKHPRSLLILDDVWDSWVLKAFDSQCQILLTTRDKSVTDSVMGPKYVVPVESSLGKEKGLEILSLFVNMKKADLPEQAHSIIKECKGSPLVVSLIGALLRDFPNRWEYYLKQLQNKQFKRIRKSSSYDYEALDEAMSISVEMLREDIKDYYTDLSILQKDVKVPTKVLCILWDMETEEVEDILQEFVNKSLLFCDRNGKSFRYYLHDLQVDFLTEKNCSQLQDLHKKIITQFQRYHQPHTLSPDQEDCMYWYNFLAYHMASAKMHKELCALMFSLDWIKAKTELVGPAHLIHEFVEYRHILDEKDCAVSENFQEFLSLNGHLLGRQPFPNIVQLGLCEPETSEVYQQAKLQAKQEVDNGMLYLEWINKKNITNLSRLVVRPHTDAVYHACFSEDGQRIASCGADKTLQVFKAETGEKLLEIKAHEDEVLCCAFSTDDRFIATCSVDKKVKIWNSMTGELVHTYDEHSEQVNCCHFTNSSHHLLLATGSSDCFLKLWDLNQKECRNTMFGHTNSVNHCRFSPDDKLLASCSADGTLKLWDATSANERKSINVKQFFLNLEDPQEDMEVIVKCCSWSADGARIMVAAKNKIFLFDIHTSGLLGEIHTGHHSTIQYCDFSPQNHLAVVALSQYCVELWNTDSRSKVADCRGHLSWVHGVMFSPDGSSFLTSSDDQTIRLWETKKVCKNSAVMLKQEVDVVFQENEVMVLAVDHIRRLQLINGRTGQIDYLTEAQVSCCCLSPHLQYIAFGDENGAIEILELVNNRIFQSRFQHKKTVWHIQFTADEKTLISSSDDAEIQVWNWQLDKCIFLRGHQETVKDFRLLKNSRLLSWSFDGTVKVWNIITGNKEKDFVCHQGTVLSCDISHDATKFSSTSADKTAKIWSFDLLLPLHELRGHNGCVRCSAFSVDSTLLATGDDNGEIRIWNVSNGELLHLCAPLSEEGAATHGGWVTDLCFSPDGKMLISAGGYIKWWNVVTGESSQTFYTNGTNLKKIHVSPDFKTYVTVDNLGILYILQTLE

Protein RecA = target: T3, Protein RecA (Mycobacterium tuberculosis, UniProt P9WHJ3); assay: Fluorescence Cell-Free Homogeneous Dose Retest to Identify Inhibitors of RecA-Intein Splicing Activity. [Related pubchem assays (depositor defined):AID2097, AID2223, AID489010, AID492950]; type: functional
T3 sequence (P9WHJ3 whole entry): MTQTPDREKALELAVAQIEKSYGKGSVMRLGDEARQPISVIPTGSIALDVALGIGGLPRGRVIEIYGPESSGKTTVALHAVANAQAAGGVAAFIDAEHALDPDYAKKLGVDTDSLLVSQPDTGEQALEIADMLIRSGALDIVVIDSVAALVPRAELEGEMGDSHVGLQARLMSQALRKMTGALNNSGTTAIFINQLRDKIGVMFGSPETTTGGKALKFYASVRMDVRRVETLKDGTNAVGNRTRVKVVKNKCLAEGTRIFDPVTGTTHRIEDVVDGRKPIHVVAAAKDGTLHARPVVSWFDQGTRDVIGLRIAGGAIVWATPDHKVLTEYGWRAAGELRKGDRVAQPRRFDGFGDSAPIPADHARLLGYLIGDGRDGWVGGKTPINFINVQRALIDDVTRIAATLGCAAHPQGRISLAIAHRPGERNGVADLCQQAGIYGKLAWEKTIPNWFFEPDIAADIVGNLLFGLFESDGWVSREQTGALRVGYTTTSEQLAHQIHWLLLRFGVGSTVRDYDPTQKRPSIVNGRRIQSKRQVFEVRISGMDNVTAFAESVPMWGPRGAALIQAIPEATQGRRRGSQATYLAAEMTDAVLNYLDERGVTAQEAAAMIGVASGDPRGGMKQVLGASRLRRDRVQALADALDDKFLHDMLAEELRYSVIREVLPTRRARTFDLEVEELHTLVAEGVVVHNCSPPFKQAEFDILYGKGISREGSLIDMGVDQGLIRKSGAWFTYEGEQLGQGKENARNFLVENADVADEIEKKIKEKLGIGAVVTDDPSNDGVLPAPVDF

[3] = fluconazole-exposed Candida albicans growth modulators – fluorescence, retest, confirmation (AID 2467); type: functional, cell-based
[4] = NIH-3T3 fibroblast cytotoxicity, dose response, cytotoxicity control, cell-based, fluorescence, Alamar Blue, secondary assay (AID 2327); type: functional;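 also: NIH-3T3 mouse fibroblasts cultured with fluconazole at 8 µg/mL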

| SMILES | AC50 [1] | IC50 [2] | EC50 (Protein RecA) | EC50 [3] | EC50 [4] |
| --- | --- | --- | --- | --- | --- |
| O=C(N/N=C1\C/C(=N\NC(=O)c2ccncc2)c2ccccc21)c1ccncc1 | 6.09 µM (active) | 12.8 µM (active) | 0.732 µM (active) | – | – |
| CCCCC(=O)NC(c1ccccc1)c1ccc2cccnc2c1O (stereo not given) | – | – | – | 0.569 µM (active) | 19.9 µM (inconclusive) |
| COc1ccc(-n2c3nc4ccccc4nc3c3c(=N)oc(C)nc32)cc1 | > 120 µM (inactive) | 19.1 µM (active) | > 380 µM (inactive) | – | – |
| CC(=O)N(Cc1ccc(F)cc1)C1=C(NCCc2ccccc2)C(=O)c2ccccc2C1=O | 4.93 µM (active) | 7.39 µM (active) | 1.42 µM (active) | 0.785 µM (active) | 9.84 µM (inconclusive) |
| O=C(/C=C/c1cccs1)NC(=S)NNC(=O)c1ccccc1O | – | – | – | > 38 µM (not active) | 35.5 µM (active) |
